Measurements reported in a melting point compilation (Tetko et al.; mined from patent text by program, amines drawn as free bases though some values may be those of a salt).

melting point	SMILES
162 to 163 °C	CC(C)C[C@H](NC(=O)[C@H](CC(=O)OC(C)(C)C)Cc1ccccc1)C(=O)N[C@@H](CC(C)C)[C@@H](O)c1nccs1
119 to 120 °C	C/C(=C\c1ccc(C(=O)OC(C)C)cc1)c1ccc2c(c1)C(C)(C)CCC2(C)C
141 to 142 °C	CCOC(=O)Cn1c(-c2ccc(Cl)c(Cl)c2)nc2cccnc21
148 to 150 °C	COC(=O)C1=C(C)NC(CF)=C(C(=O)OC)C1c1c(F)c(F)c(F)c(F)c1F (stereo not drawn)
189 to 190 °C	CCOC(=O)CCC(CC(=O)c1ccc(NCc2ccc3ccc4nc(C)[nH]c(=O)c4c3c2)cc1)C(=O)OCC (racemic)
264 to 265 °C	CCCn1ccc2c(c1=O)C(c1cccc(Cl)c1Cl)C(C(=O)OCC)=C(C)N2 (stereo not drawn)
164 °C	Nc1nc(N)c(CCCC(CO)c2ccc(C(=O)N[C@@H](CCC(=O)O)C(=O)O)cc2)c(O)n1 (stereo partly drawn)
103 to 104 °C	C=CC(=O)NC(C)c1ccc(Cl)cc1 (stereo not drawn)
157 to 160 °C	O=C(O)CCCc1cc2nc(Cl)ccc2n1S(=O)(=O)c1cccc(-c2cncs2)c1
123 to 125 °C	CCS(=O)C1(Cl)CC2CC(=O)N2C1C(=O)OCc1ccccc1 (stereo not drawn)
94 to 95 °C	Cc1c(C)c([N+](=O)[O-])c(C)c2c1OC(C)(C)C2c1ccc(F)cc1 (stereo not drawn)
165 to 166 °C	COc1cccc2c1OC(C(N)=O)(c1ccncc1CC(=O)OCc1ccccc1)C2 (stereo not drawn)
72 °C	CCCC(=O)C1=C(O)CC(c2cccnc2)CC1=O (stereo not drawn)
117 to 119 °C	COc1c(N2C[C@H]3[C@@H](F)CC[C@@]3(N)C2)c(F)cc2c(=O)c(C(=O)O)cn([C@@H]3C[C@@H]3F)c12
236 to 237 °C	CC1(C)OC(=O)Nc2ccc(-c3cccc(C#N)c3)cc21
210 °C	Cc1c(C(=O)c2ccc(Cl)c(S(N)(=O)=O)c2)sc2ccccc12
197 to 199 °C	CCCNC(=O)N1CCc2cc(S(=O)(=O)N3CC(c4ccccc4)NC3=O)ccc21 (stereo not drawn)
126 to 127 °C	CCN(CC)CCNC(=O)c1cccc2c(=O)c(C)c(-c3ccc(OC)cc3)oc12

melting point	SMILES
164 to 166 °C	CC(C)c1ccc2c(c1)c(Sc1ccccc1)c(CCC(C)(C)C(=O)O)n2Cc1ccc(Cl)cc1
58 to 59 °C	CCN(CC)C(=O)n1cnc(S(=O)(=O)C(F)F)n1
203 °C	CCCCc1c(C)c2ccc(OCCCCl)cc2[nH]c1=O
117 to 118 °C	COc1cc(Nc2nccc(-c3ccc(NCCN)nc3)n2)cc(OC)c1OC
210 to 213 °C	O=C(/C=C/c1ccc(Sc2ccccc2[N+](=O)[O-])c(Cl)c1Cl)N1CCOCC1
125 to 126 °C	CC(=O)NC[C@H]1CN(c2cc(F)c(C3CCNCC3)c(F)c2)C(=O)O1
215 to 217 °C	COC(=O)C(O)C1OC(n2cnc3c(N)ncnc32)C(O)C1O (stereo not drawn)
90 to 92 °C	OC(c1cccs1)C1CCCCC1 (stereo not drawn)
75 to 77 °C	Cc1ccc(C)n1CCNC(=O)COc1ccc(Cl)cc1
263 to 265 °C	CS(=O)(=O)Nc1c(-c2cc(Cl)ccc2O)c2cc(C(F)(F)F)ccc2[nH]c1=O
138 to 146 °C	CC1=C(c2ccc(O)cc2)C(=O)c2ccc(O)cc21
61 °C	CCCCCCCCCCCCCCCCOc1cc(OC)c(N)cc1OC
> 250 °C	C#CCn1c(=O)sc2cc(F)c(-n3c(=O)cc(C)[nH]c3=O)cc21
78 to 79 °C	CCOC(=O)C(CC)C(=O)N1NCCCC1C(=O)OC(C)(C)C (stereo not drawn)
156 to 157 °C	COCCN(CCOC)c1ccc(NC(=O)c2ccc(C)c(Nc3nccc(-c4cccnc4)n3)c2)cc1C(F)(F)F
72.5 to 74 °C	O=C(Cl)N1CC(Oc2cccc(C(F)(F)F)c2)C1
75 to 76 °C	CCCN(CCC)C(=O)C(CCC(=O)NC)NC(=O)OCc1ccccc1 (stereo not drawn)

SMILES	melting point
N#Cc1nn(-c2c(Cl)cc(C(F)(F)F)cc2Cl)c(Cl)c1SC(F)(F)F	131 to 132 °C
O=P(ONc1ccccc1)(ONc1ccccc1)Oc1ccccc1	176 to 178 °C
CN(C)C1(Cc2ccccc2)CCC(O)(c2csc3ccccc23)CC1 (stereo not drawn)	158 to 160 °C
